The values that follow come from paper PMC6728138, “Quantitative mapping of protein-peptide affinity landscapes using spectrally encoded beads” (eLife, 2019).

One assay addresses T1, calcineurin (CN) (Homo sapiens, UniProt Q08209).
T1 construct: human calcineurin A isoforms (truncated at residue 400); made in house; host or cells: E. coli BL21 (DE3)
The assay can be described thus: MRBLE-pep calcineurin binding assay (concentration-dependent). The method, then:
MRBLEs were prepared by transferring a 20 μL aliquot from a 600 μL suspension (∼3000–8000 beads depending on pellet size) to a 100 μL PCR strip (20 μL for each CN concentration), exchanging buffer via 3 cycles of iterative pelleting, decanting, and resuspension with 0.1% PBST containing 5% BSA, pH = 7.5 (100 μL), and then left mixing at ∼5 °C on a rotator in the same wash buffer overnight (∼14 hr). MRBLEs were then buffer exchanged once again with CN binding buffer (50 mM Tris pH = 7.5, 150 mM NaCl, 0.1% TWEEN 20) via three iterative cycles of pelleting, decanting, and resuspension.
After incubation, MRBLEs were pelleted, decanted, and washed once with 0.1% PBST (100 μL). After a final round of pelleting and decanting, 20 μL of 0.1% PBST was added and the beads were transferred to a quartz microscope slide for imaging.
The affinity ( Kd ) for each peptide in a MBRLE library was determined via a two-step nonlinear regression using a single-site binding model:(1) Ii=(Imax[CNtotal])/(Kd,i+[CNtotal]) where Ii is the median measured fluorescence intensity for each peptide, Kd,i is the dissociation constant for that interaction, [ CNtotal ] is total CN concentration, and Imax is a global variable representing the fluorescence intensity once MRBLE-pep beads are saturated. First, we determined the global saturation value ( Imax ), by globally fitting the top 80% highest-intensity MRBLE codes. Next, we globally fit the entire data set using this Imax value to yield an estimated absolute affinity ( Kd ) for all peptides in the library. […] Differences in binding affinity were calculated relative to a reference peptide using the standard equation:(2) ΔΔG=RTln(Kd,i/Kd,ref)
Next, we used this reference value and calculated differences in binding affinity ( ΔΔG ) to estimate absolute Kd values for each peptide within the calibration and full calibration libraries (Figure 2—source data 1, Figure 2—source data 2, Figure 5—source data 1, Figure 5—source data 2, Figure 5—source data 3, Figure 5—source data 4).

The subject of assay [1] is NFAT-driven luciferase activity in HEK293T cells. The assay can be described thus: In vivo calcineurin activity assay (NFAT dual luciferase reporter). The assay is classed as cell-based. Particulars: initial in vivo experiment, FK506 1 μM. The source says:
To test the degree to which in vitro MRBLE-pep affinities predict in vivo inhibition, we used a previously developed dual luciferase reporter assay to assess the activity of the NFAT2 transcription factor in HEK293T cells (Figure 6A) ([Grigoriu et al., 2013]). NFAT2 must be dephosphorylated by CN to accumulate in the nucleus, where it activates transcription of its target genes, and this interaction can be inhibited by peptides or small molecules that binds to CN. Reduction of NFAT2-dependent transcriptional activity upon expression of a competing PxIxIT peptide therefore reflects, quantitatively, the affinity of the inhibitor peptide for CN. Candidate PxIxIT inhibitors were co-expressed as GFP-fusion proteins within cells to enhance their stability and facilitate direct measurement of inhibitor concentrations.
PxIxIT peptides were fused to eGFP in pEGFPc1 vector. HEK293T cells were transfected with pEGFPc1 clones, pNFAT-Luc and CMV-Renilla in a 6-well plate format. 18 hr post transfection, 1μM FK506 or DMSO (vehicle) was added to the media as needed. […] 6 hr after pathway activation, cells were collected, washed in PBS and re-suspended in DMEM media. 80% of the cells were used to measure luciferase activity and renilla using the Dual-Glo assay system (Promega) with three technical replicates. The remaining cells were frozen and stored at −80°C. Cell lysates were prepared in RIPA buffer. 15–20 μg of lysate was analyzed by Western for expression of GFP. GFP signal was normalized to either actin or tubulin. Luciferase activity (normalized to renilla expression) was further normalized to eGFP expression. Data represent at least three experimental replicates.

The test system of another assay is CN. The note with it: ref Fruman et al., 1992; cited from earlier work. The text has this: Consistent with MRBLE-pep measurements, ...

Like-named read-outs stand apart in the source and are kept apart here. Ends that are not written are not given here.

T1 sequence (Q08209 1-400 limits assumed): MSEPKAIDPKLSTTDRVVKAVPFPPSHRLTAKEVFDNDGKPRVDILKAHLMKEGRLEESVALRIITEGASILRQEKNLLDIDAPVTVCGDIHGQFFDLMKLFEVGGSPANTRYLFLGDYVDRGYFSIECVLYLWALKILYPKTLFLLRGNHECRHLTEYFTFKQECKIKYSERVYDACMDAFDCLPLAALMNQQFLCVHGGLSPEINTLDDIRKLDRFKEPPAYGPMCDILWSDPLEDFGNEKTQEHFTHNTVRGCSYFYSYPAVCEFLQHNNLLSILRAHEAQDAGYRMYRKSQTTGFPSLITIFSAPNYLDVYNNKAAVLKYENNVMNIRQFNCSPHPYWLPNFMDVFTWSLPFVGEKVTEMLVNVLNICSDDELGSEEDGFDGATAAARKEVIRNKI
T1 sequence (P63098 whole entry partner, the tested form may be a part, canonical isoform): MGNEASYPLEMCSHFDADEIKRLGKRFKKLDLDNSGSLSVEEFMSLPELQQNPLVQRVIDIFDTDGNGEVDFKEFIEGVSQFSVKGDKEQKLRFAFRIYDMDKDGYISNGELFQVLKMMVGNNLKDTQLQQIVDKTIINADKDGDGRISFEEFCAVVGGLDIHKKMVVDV

In the case of HAVIVITGPH-NH2, the Kd at calcineurin (CN) (bold value over the codes, read-out: kd, 'Triplicate high' library) was 1270 ± 130 nM.

In the case of `C=CC[C@@H]1/C=C(\C)C[C@H](C)C[C@H](OC)[C@H]2O[C@@](O)(C(=O)C(=O)N3CCCC[C@H]3C(=O)O[C@H](/C(C)=C/[C@@H]3CC[C@@H](O)[C@H](OC)C3)[C@H](C)[C@@H](O)CC1=O)[C@H](C)C[C@@H]2OC` [FK506], the “NFAT-driven luciferase activity, normalized to renilla and eGFP expression, relative to empty vector (Data)” value in assay [1] (replicate 1) was 0.09. The “NFAT-driven luciferase activity, normalized, relative to empty vector (Data)” value in assay [1] (replicate 2) came out at 0.08616; in assay [1] (replicate 3), 0.09188. Also, the concentration for half-maximal inhibition (IC50) in the assay on CN is around 0.5 nM.

HPSIVITGPH-NH2: on calcineurin (CN) (kd, 'Triplicate high' library), the Kd worked out at 880 ± 260 nM.

With HPVIVVTGPH-NH2, the Kd at calcineurin (CN) (apparent Kd, 'Triplicate low' (Figure 2C, measure not given)) was determined as 2000 ± 400 nM; at calcineurin (CN) (kd, 'Triplicate high' library), 920 ± 250 nM.
